Experimental data published in patent US11053204B2, “Pyrimidinyloxy benzene derivatives as herbicides” (FMC Corporation, priority 2015, dated 2021).

Columns and labels:
Assay type in all cases: in vivo
[1] = test system: Italian ryegrass (Lolium multiflorum); test: Test A postemergence, visual injury rating
In short: (§1)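 Visual injury scored 0–100 (100 = complete control) against untreated controls about 10 days after treatment in a greenhouse. Test chemicals, formulated with surfactant in non-phytotoxic solvent, were sprayed on soil preemergence or on 2-10 cm, one- to two-leaf plants postemergence.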

[2] = test system: barnyardgrass (Echinochloa crus-galli); test: Test A postemergence, visual injury rating; conditions: 0 is no effect, 100 is complete control; for Barnyardgrass plant response rating: 0 to 100 scale, approximately 10 days
In short: as §1

[3] = test system: blackgrass (Alopecurus myosuroides); test: Test A postemergence, visual injury rating
In short: as §1

corn (Zea mays) = test: Test A postemergence, visual injury rating
In short: as §1

[4] = test system: galium (catchweed bedstraw, Galium aparine); test: Test A postemergence, visual injury rating
In short: as §1

[5] = test system: giant foxtail (Setaria faberii); test: Test A postemergence, visual injury rating
In short: as §1

kochia (Kochia scoparia) [6] = test: Test A postemergence, visual injury rating
In short: as §1

[7] = test system: pigweed (Amaranthus retroflexus); test: Test A postemergence, visual injury rating
In short: as §1

[8] = test system: ragweed (common ragweed, Ambrosia elatior); test: Test A postemergence, visual injury rating
In short: as §1

[9] = test system: wheat (Triticum aestivum); test: Test A postemergence, visual injury rating
In short: as §1

[10] = test system: barnyardgrass (Echinochloa crus-galli); test: Test B flooded paddy test, plant response rating; conditions: 250 g ai/ha; Flood; scale of 0 to 100 where 0 is no effect and 100 is complete control; 13 to 15 days
In short: (§2)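 Under a constant 3 cm flood, test compounds went directly into the paddy water. Following 13 to 15 days of greenhouse growth, treated species and controls were compared by eye.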

[11] = test system: ducksalad (Heteranthera limosa); test: Test B flooded paddy test, plant response rating; conditions: 250 g ai/ha; Flood; scale of 0 to 100 where 0 is no effect and 100 is complete control; 13 to 15 days
In short: as §2

rice (Oryza sativa) = test: Test B flooded paddy test, plant response rating; conditions: 250 g ai/ha; Flood; scale of 0 to 100 where 0 is no effect and 100 is complete control; 13 to 15 days
In short: as §2

[12] = test system: sedge, umbrella (small-flower umbrella sedge, Cyperus difformis); test: Test B flooded paddy test, plant response rating; conditions: 250 g ai/ha; Flood; scale of 0 to 100 where 0 is no effect and 100 is complete control; 13 to 15 days
In short: as §2

kochia (Kochia scoparia) [13] = test: Test C preemergence, plant response rating
[14] = test system: johnsongrass (Sorghum halepense); test: Test C postemergence, plant response rating; conditions: for Johnsongrass plant response rating: scale 0 to 100 (0 no effect, 100 complete control)
In short: (§3)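 Both timings shared one formulation, a non-phytotoxic solvent mixture with surfactant, and a greenhouse period of 13 to 15 d. Preemergence used seeded loam/sand or silt loam soil, postemergence used 2 to 18 cm plants; visual ratings ran from 0 (no effect) to 100 (complete control).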

[15] = test system: surinam grass (Brachiaria decumbens); test: Test C postemergence, plant response rating; conditions: for Surinam Grass plant response rating: 125 g ai/ha, scale 0 to 100 (0 no effect, 100 complete control)
In short: as §3

[16] = test system: wild poinsettia (Euphorbia heterophylla); test: Test C postemergence, plant response rating; conditions: for Poinsettia, Wild plant response rating: scale 0 to 100 (0 no effect, 100 complete control)
In short: as §3

[17] = 125 g ai/ha, 0 to 100 scale, 0 is no effect, 100 is complete control, approximately 10 days
[18] = 500 g ai/ha, 0 is no effect, 100 is complete control
[19] = 31 g ai/ha, 0 to 100 scale (0 no effect, 100 complete control)

SMILES | Ryegrass, Italian plant response rating [1, 17] | Barnyardgrass plant response rating ([2]; 125 g ai/ha) | Blackgrass plant response rating [3, 17] | Corn plant response rating (corn (Zea mays); [17]) | Galium plant response rating [4, 17] | Foxtail, Giant plant response rating [5, 17] | Kochia plant response rating (kochia (Kochia scoparia) [6]; [17]) | Pigweed plant response rating [7, 17] | Ragweed plant response rating [8, 17] | Wheat plant response rating [9, 17] | Plant response rating, Barnyardgrass [10] | Plant response rating, Ducksalad [11] | Plant response rating, Rice (rice (Oryza sativa)) | Plant response rating, Sedge, Umbrella [12] | Plant response rating, Kochia (kochia (Kochia scoparia) [13]; 31 g ai/ha, scale 0 to 100) | Plant response rating, Kochia (kochia (Kochia scoparia) [13]; 62 g ai/ha, scale 0 to 100) | Plant response rating, Kochia (kochia (Kochia scoparia) [13]; 125 g ai/ha, scale of 0 to 100) | Plant response rating, Johnsongrass ([14]; 16 g ai/ha, scale of 0 to 100) | Plant response rating, Johnsongrass ([14]; 31 g ai/ha, scale 0 to 100) | Johnsongrass plant response rating ([14]; 62 g ai/ha) | also measured
CCCC(=O)c1c(Oc2ncc(Cl)cn2)cccc1C(F)(F)F [Compound 136] | 10 | 30 | 50 | 20 | 40 | 30 | 80 | 100 | 20 | 10 | 45 | 60 | 35 | 80 | 80 | 85 | 98 | 5 | 5 | 10 | Ryegrass, Italian plant response rating (0 to 100 scale) [1, 18]: 70; Barnyardgrass plant response rating (0 to 100 scale) ([2]; 500 g ai/ha): 80; Blackgrass plant response rating (0 to 100 scale) [3, 18]: 100; Corn plant response rating (0 to 100 scale) (corn (Zea mays); [18]): 50; Galium plant response rating (0 to 100 scale) [4, 18]: 100; Foxtail, Giant plant response rating (0 to 100 scale) [5, 18]: 90; Kochia plant response rating (0 to 100 scale) (kochia (Kochia scoparia) [6]; [18]): 100; Pigweed plant response rating (0 to 100 scale) [7, 18]: 100; Ragweed plant response rating (0 to 100 scale) [8, 18]: 60; Wheat plant response rating (0 to 100 scale) [9, 18]: 20; Johnsongrass plant response rating ([14]; 125 g ai/ha): 15; Plant response rating, Surinam Grass ([15]; 16 g ai/ha, scale of 0 to 100): 5; Plant response rating, Surinam Grass ([15]; 31 g ai/ha, scale 0 to 100): 5; Surinam Grass plant response rating [15]: 10; Plant response rating, Poinsettia, Wild ([16]; 16 g ai/ha, scale of 0 to 100): 40; Plant response rating, Poinsettia, Wild ([16]; 31 g ai/ha, scale 0 to 100): 65; Poinsettia, Wild plant response rating ([16]; 62 g ai/ha): 70; Poinsettia, Wild plant response rating ([16]; 125 g ai/ha): 75
FC(F)(F)CCCCc1c(Br)cccc1Oc1ncc(Cl)cn1 [Compound 138] | 100 | 90 | 90 | 60 | 100 | 90 | 100 | 100 | 60 | 40 | 50 | 100 | 45 | 85 | 75 | 80 | 80 | 10 | 25 | 80 | Ryegrass, Italian plant response rating [1, 19]: 30; Barnyardgrass plant response rating ([2]; 31 g ai/ha): 90; Blackgrass plant response rating [3, 19]: 40; Corn plant response rating (corn (Zea mays); [19]): 30; Galium plant response rating [4, 19]: 70; Foxtail, Giant plant response rating [5, 19]: 90; Kochia plant response rating (kochia (Kochia scoparia) [6]; [19]): 90; Pigweed plant response rating [7, 19]: 100; Ragweed plant response rating [8, 19]: 30; Wheat plant response rating [9, 19]: 20; Johnsongrass plant response rating ([14]; 125 g ai/ha): 90; Plant response rating, Surinam Grass ([15]; 16 g ai/ha, scale of 0 to 100): 20; Plant response rating, Surinam Grass ([15]; 31 g ai/ha, scale 0 to 100): 20; Surinam Grass plant response rating [15]: 35; Plant response rating, Poinsettia, Wild ([16]; 16 g ai/ha, scale of 0 to 100): 30; Plant response rating, Poinsettia, Wild ([16]; 31 g ai/ha, scale 0 to 100): 60; Poinsettia, Wild plant response rating ([16]; 62 g ai/ha): 75; Poinsettia, Wild plant response rating ([16]; 125 g ai/ha): 90
O=C(CCCC(F)(F)F)c1c(Cl)cccc1Oc1ncc(Cl)cn1 [Compound 143] | 80 | 70 | 80 | 30 | 100 | 70 | 100 | 100 | 50 | 20 | 50 | 90 | 40 | 90 | 80 | 90 | 90 | 5 | 5 | 10 | Ryegrass, Italian plant response rating [1, 19]: 20; Barnyardgrass plant response rating ([2]; 31 g ai/ha): 20; Blackgrass plant response rating [3, 19]: 30; Corn plant response rating (corn (Zea mays); [19]): 10; Galium plant response rating [4, 19]: 90; Foxtail, Giant plant response rating [5, 19]: 30; Kochia plant response rating (kochia (Kochia scoparia) [6]; [19]): 90; Pigweed plant response rating [7, 19]: 100; Ragweed plant response rating [8, 19]: 20; Wheat plant response rating [9, 19]: 10; Johnsongrass plant response rating ([14]; 125 g ai/ha): 20; Plant response rating, Surinam Grass ([15]; 16 g ai/ha, scale of 0 to 100): 5; Plant response rating, Surinam Grass ([15]; 31 g ai/ha, scale 0 to 100): 10; Surinam Grass plant response rating [15]: 20; Plant response rating, Poinsettia, Wild ([16]; 16 g ai/ha, scale of 0 to 100): 55; Plant response rating, Poinsettia, Wild ([16]; 31 g ai/ha, scale 0 to 100): 65; Poinsettia, Wild plant response rating ([16]; 62 g ai/ha): 70; Poinsettia, Wild plant response rating ([16]; 125 g ai/ha): 75
